For one series, the system named is LN229 and U251 cells. The series can be described thus: Cell-cycle analysis by flow cytometry (EdU and DAPI), glioblastoma cells. The series is classed as cell-based. As for the experimental part: To assess the cytotoxicity of ISPs I, II and III, five glioblastoma cell lines, T98G, U118, A172, LN229 and U251, were treated with serial doses of each ISP, respectively, for 48 hours. Cell viability of these cell lines were evaluated by CCK8 assay, and the 50% inhibitory concentration (IC50) was calculated (FIG. 2A, B and FIG. 3). […] Cell distribution in each phase of the cell cycle was assessed in LN229 and U251 cells by flow cytometry, followed by EdU and DAPI staining.
For monitoring cell-cycle arrest of ISP I-treated cells, Click-iT EdU Flow Cytometry Assay Kits were used, a product of ThermoFisher Scientific. Cells were co-cultured with EdU at a concentration of 10 μM for 1 hour. After fixation and permeabilization, EdU-positive cells were labeled with Alexa Fluor 647 fluorescein. DAPI also was used for measuring total DNA content to identify differences in cell cycle phases. Data were collected by means of a BD LSRFortessa flow cytometer using FlowJo software. Cells that are positive with EdU and DAPI were in S-Phase of the cell cycle.

The test system of series [1] is glutathione-dependent peroxidases (SELH enzyme activity). Put plainly: Glutathione peroxidase activity assay. The series is classed as cell-based. To be noted: LN229 cells. From the text: Since glutathione peroxidase catalyzes the reduction of reactive oxidative species (ROS), the inventors assessed whether treatment with ISP I increased the generation of ROS in glioblastoma cell lines (LN229 and U251) and RCC cell lines (786-O and RCC4).
Glutathione peroxidase kit (Abcam, Cambridge, Mass. USA) was used to quantitate the activity of all of the glutathione-dependent peroxidases in live cells (2×10^6), which were harvested and homogenized with assay buffer provided in the kit. Then the supernatant was collected and incubated in accordance with the manufacturer's instructions. Absorbance at 340 nm was measured using the microplate reader mentioned above.

Another series relates to γH2AX. The series can be described thus: γH2AX immunofluorescence staining and western blot (DNA damage). The series is classed as cell-based. Conditions: 6 hours. Here is the method:
It is well-established that increased levels of ROS in cells leads to oxidative DNA damage, inducing genomic instability and inhibiting cell cycle progression. Cooke et al., FASEB J. 17: 1195 (2003). Since ISP I downregulates SELH, a key regulator of ROS response elements, the inventors first assessed whether treatment with ISP I augmented DNA damage in vitro.
Western blotting was performed to detect the protein expression level of SELH, NRF2 and γH2AX regulated by ISP I. The cells were lysed by RIPA buffer from ThermoFisher Scientific, and the concentration was measured using DC Protein Assay, a Bio-Rad product. Equal amounts of protein of each sample were loaded for gel electrophoresis and were transferred to nitrocellulose membrane, blocked and incubated overnight at 4° C. with primary antibodies. Then the membranes were washed with TBST (3 times, 10 min each). Exposure, imaging, and data analysis were done using a KwikQuant Imager system, a product of Kindle Biosciences (Greenwich, Conn. USA). The following antibodies were used: anti-phospho-histone H2A.X (Ser139), anti-NRF2 (Cell Signaling, Danvers, Mass. USA), anti-SELH (Abcam, Cambridge, Mass. USA), anti-GAPDH (Millipore, Temecula, Calif. USA).
For immunofluorescence assay, cells were seeded on a 35-mm confocal dish with glass bottom and were treated with ISP I. […] Then the cells were incubated with secondary antibody conjugated with Alexa Fluor-594 (Invitrogen), followed by staining with DAPI for nuclei. Images were obtained using Zeiss LSM 780 microscopy (Carl Zeiss, Oberkochen Germany).

Series [2] is described as follows: Tolerability in xenograft mouse models (bodyweight, histopathology, clinical chemistry). The series is classed as in vivo, mice.
The target in the next series is T1, SELH (Homo sapiens, UniProt Q8IZQ5).
T1 sequence (Q8IZQ5 1-122): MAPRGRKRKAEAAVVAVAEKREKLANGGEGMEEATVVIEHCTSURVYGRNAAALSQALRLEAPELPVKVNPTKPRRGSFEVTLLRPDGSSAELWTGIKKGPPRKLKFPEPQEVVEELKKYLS
Put plainly: Drug affinity responsive target stability (DARTS) assay. Format: binding. Further details: endogenous in cells; host or cells: LN229. Conditions: LN229 lysate; ISP I 40 μg/mL. As for the experimental part: To identify ISP I's molecular target, the inventors performed drug affinity responsive target stability (DARTS) assay in LN229 cells.
The inventors discovered that the binding of ISP I to its target proteins temporarily locks them into a stable conformational structure, which prevents their recognition by proteases. After evading protease degradation, the identity of ISP I's target proteins was determined using mass spectroscopy.
DARTS assay data were taken to identify the target of ISP I in vitro. For this assay, the invenots used the protocol published by Lomenick et al., Proc. Nat'l Acad. Sci. USA 106: 21984 (2009). Briefly, LN229 cells were lysed with M-PER (Pierce) supplemented with protease and phosphatase inhibitors. After centrifugation at 14,000 rpm for 15 min, lysates were diluted to the same final volume and protein concentration with M-PER and were dissolved in TNC buffer [50 mM Tris-HCl (pH 8.0), 50 mM NaCl, 10 mM CaCl2)]. All steps were performed on ice or at 4° C. to help prevent premature protein degradation. […] Peptides were analyzed by LC/MS/MS on a Thermo LTQ-Orbitrap mass spectrometer with an Eksigent LC pump. For quantitative comparison of protein and peptide abundances, MS spectra were analyzed by means of the differential workflow of Rosetta Elucidator (Rosetta Inpharmatics).

Setting [3] is: LN229, 786-O and IOMM xenograft mouse models.

Entries after “also recorded” stand apart in the source; their conditions may differ.

This note sets out measurements from patent publication US11351185B2, “Use of isovalerylspiramycins as anti-cancer agents to inhibit metastasis” (priority 2020, dated 2022).

On to `COC1C(O)CC(=O)OC(C)CC=CC=CC(OC2CCC(N(C)C)C(C)O2)C(C)CC(CC=O)C1OC1OC(C)C(OC2CC(C)(O)C(OC(=O)CC(C)C)C(C)O2)C(N(C)C)C1O` (stereo not drawn) [ISP I, 4″-isolvalerylspiramycin I], for which the “cell distribution in cell-cycle phases” value in the series with LN229 and U251 cells is “G0/G1 arrest; also recorded: dose-dependent increase in the G0/G1 phase and a decrease in the S phase”. The glutathione peroxidase activity result in series [1] was “decrease, in a dose-dependent manner, of SELH enzyme activity; also recorded: significantly reduced glutathione peroxidase activity”. Moreover, the “γH2AX expression (DNA damage marker)” value in the series with γH2AX (786-O and RCC4) is recorded as “increase of γH2AX expression”; in the series on γH2AX (LN229 and U251), “higher quantities of γH2A.X”; with γH2AX (LN229 and U251, listed as ISP 1), “increase of γH2AX expression”. In series [2] (24 days after treatment), the “histopathology of major organs and standard clinical chemistry” value is recorded as “no hematologic, renal, pancreatic or liver toxicities”. In series [2] (setting [3]), the bodyweight during treatment result is on record as “bodyweight maintenance; also recorded: animals maintained their bodyweight”. Further, in series [2] (setting [3]), the tolerability of treatment entry is recorded as “well-tolerated”. For the same molecule, at SELH, the “protein protected from protease (target identification by mass spectroscopy)” value is “SELH was the most abundant primary protein present”.
